In PubChem BioAssay (NCI):
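Five concentrations, 48 hours, 96-well plates. At the GI50, growth is halved. TGI is the concentration that stops growth completely.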

Legend:
Assay in all cases: growth of human tumour cells (NCI), 48 h
[1] = tested on: EKVX NSCLC
[2] = tested on: TK-10 renal
[3] = tested on: OVCAR-3 ovarian
[4] = tested on: HOP-62 NSCLC
[5] = tested on: T-47D breast
[6] = tested on: HL-60(TB) leukemia
[7] = tested on: COLO 205 colon
[8] = tested on: UO-31 renal
[9] = tested on: HCT-15 colon
[10] = tested on: HOP-92 NSCLC
[11] = tested on: SNB-75 CNS
[12] = tested on: UACC-257 melanoma
[13] = tested on: NCI-H226 lung
[14] = tested on: SK-MEL-2 melanoma
[15] = tested on: HS 578T breast

Row | Structure (SMILES) | TGI [1] [µM] | TGI [2] [µM] | TGI [3] [µM] | TGI [4] [µM] | TGI [5] [µM] | TGI [6] [µM] | TGI [7] [µM] | TGI [8] [µM] | TGI [9] [µM] | TGI [10] [µM] | TGI [11] [µM] | TGI [12] [µM] | TGI [13] [µM] | GI50 [1] [µM] | GI50 [3] [µM] | GI50 [4] [µM] | GI50 [5] [µM] | TGI [14] [µM] | TGI [15] [µM]
1 | CC(=O)O[C@H]1CC[C@@]2(C)C(=CC[C@@H]3[C@@H]2CC[C@]2(C)c4nc(Cl)ccc4C[C@@H]32)C1 | > 100 | > 100 | 69.8 | > 100 | > 100 | > 100 | > 100 | > 100 | > 100 | > 100 | 94 | > 100 | > 100 | – | – | – | – | – | –
2 | COc1cc(O)c2c(=O)c(OC)c(-c3ccc(OC)c(OC)c3)oc2c1 | > 100 | > 100 | > 100 | > 100 | > 100 | > 100 | > 100 | > 100 | > 100 | – | – | > 100 | – | > 100 | > 100 | 58.5 | 31.1 | – | –
3 | CN(C)CCNC(=O)c1cccc2c(NC(CCC(N)=O)C(=O)O)c3ccccc3nc12 (stereo unspecified) | 53.3 | > 100 | > 100 | 47.8 | – | – | 19.8 | 7.15 | 22.5 | > 100 | 30.8 | > 100 | 46.6 | – | – | – | – | 25.4 | –
4 | COc1cc(CNc2nc3ccccc3nc2C(=O)O)cc(OC)c1OC | > 100 | > 100 | > 100 | > 100 | > 100 | > 100 | > 100 | > 100 | > 100 | > 100 | > 100 | > 100 | > 100 | – | – | – | – | – | > 100
5 | O=C1N[C@@H]2C(=C[C@H](O)[C@@H](O)[C@H]2O)c2cc3c(c(O)c21)OCO3 | 0.0743 | – | 0.0639 | 0.0538 | – | 0.0862 | – | 0.0955 | 8.16 | 0.272 | 0.0813 | 0.088 | 0.0876 | – | – | – | – | 0.0499 | –
6 | COc1cccc(C(=O)C#Cc2cnc(OC)nc2OC)c1 | 3.9 | 2.91 | 3.62 | 47.8 | – | 5.92 | 3.88 | 2.67 | 0.516 | 4.28 | 5.45 | 6.42 | 2.75 | – | – | – | – | 3.95 | > 30.2
7 | COc1ccc(C2=NOC(N)(c3ccc(OC)cc3)C2)cc1 (stereo unspecified) | > 100 | > 100 | > 100 | > 100 | – | > 100 | > 100 | > 100 | > 100 | > 100 | > 100 | > 100 | > 100 | – | – | – | – | > 100 | > 100
8 | COc1cc(Nc2nc3cc(C(F)(F)F)ccc3n3cccc23)cc(OC)c1OC | > 100 | > 100 | > 100 | > 100 | 9.91 | > 100 | > 100 | > 100 | > 100 | > 100 | > 100 | > 100 | – | – | – | – | – | > 100 | > 100
9 | COc1ccc(CNc2cc(=O)n(C)c(=O)[nH]2)cc1 | > 100 | > 100 | > 100 | > 100 | > 100 | – | > 100 | > 100 | > 100 | > 100 | > 100 | > 100 | > 100 | – | – | – | – | > 100 | > 100
10 | COC(=O)Cc1c(-c2c(CC(=O)OC)c3ccccc3n2C2OC(COC(C)=O)C(OC(C)=O)C(OC(C)=O)C2OC(C)=O)[nH]c2ccccc12 (stereo unspecified) | > 100 | > 100 | > 100 | > 100 | – | – | > 100 | > 100 | > 100 | > 100 | – | > 100 | – | – | – | – | – | > 100 | –
11 | CN1CCN(P2(=S)Oc3ccc4ccccc4c3-c3c(ccc4ccccc34)O2)CC1 | > 77.8 | – | > 100 | > 78.9 | – | 39.9 | 28.8 | 48 | > 100 | 59.7 | > 100 | > 91.4 | > 92.3 | – | – | – | – | 42.4 | –
12 | COC(=O)C1CCC(=O)N1C(c1ccc2c(c1)OCO2)c1cc(OC)c(OC)c(OC)c1 (stereo unspecified) | > 100 | > 100 | > 100 | > 100 | – | > 100 | > 100 | > 100 | > 100 | > 100 | > 100 | > 100 | > 100 | – | – | – | – | > 100 | > 100
13 | COC(=O)C(=O)Cc1nc2ccccc2o1 | > 100 | > 100 | > 100 | > 100 | – | > 100 | – | > 100 | > 100 | – | > 100 | > 100 | – | – | – | – | – | > 100 | –
14 | O=NN(CCF)C(=O)NC1CCSCC1 | – | – | > 100 | > 100 | – | > 100 | > 100 | > 100 | > 100 | > 100 | > 100 | > 100 | – | – | – | – | – | > 100 | –
15 | NC(Cc1ccc(S(=O)(=O)O)cc1)C(=O)NC(Cc1ccc(S(=O)(=O)O)cc1)C(=O)NC(Cc1ccc(S(=O)(=O)O)cc1)C(=O)NC(Cc1ccc(S(=O)(=O)O)cc1)C(=O)O (stereo unspecified) | > 100 | > 100 | > 100 | > 100 | > 100 | – | > 100 | > 100 | > 100 | – | > 100 | > 100 | > 100 | – | – | – | – | > 100 | > 100
16 | CC[C@@]1(O)C(=O)OCc2c1cc1n(c2=O)Cc2c-1nc1ccccc1c2/C=N\NC(=O)C(N)CCSC (stereo partly specified) | > 100 | > 100 | 3.08 | – | – | 2.66 | 18.5 | 0.277 | > 90.3 | 2.98 | 1.44 | 2.45 | 1.11 | – | – | – | – | 4.2 | > 100
17 | CC1CC(C#N)=C2NCCN2C1=O (stereo unspecified) | > 100 | > 100 | > 100 | > 100 | > 100 | > 100 | 37.4 | > 100 | > 100 | – | > 100 | > 100 | > 100 | – | – | – | – | > 100 | > 100
